{
  "source": "patent US4175081A",
  "about": "“5-Substituted thiadiazole ureas” (priority 1977, dated 1979)",
  "key": {"Turnip (TP) [1]": {"test_system": "Turnip (TP)", "experiment": "Pre-emergence herbicide test", "type": "in vivo, Brassica sp.", "conditions": "Brassica rapa, pre-emergence, 336 h; 8 lb/acre; two weeks after treatment", "procedure,_shortened": "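In this pre-emergence greenhouse test, turnip was seeded on the surface of potting soil in 3' plastic pots, lightly covered with screened soil, and watered from below. One day later the pots were sprayed in a belt-fed spray hood. Watering continued only by sub-irrigation, and percent control was visually scored two weeks after treatment.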"}, "Turnip (TP) [2]": {"test_system": "Turnip (TP)", "experiment": "Post-emergence herbicide test", "type": "in vivo, Brassica sp.", "conditions": "Brassica rapa, post-emergence, 336 h; 8 lb/acre; two weeks after treatment", "procedure,_shortened": "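A greenhouse post-emergence herbicide test on turnip. Seeds were sown on the surface of potting soil in 3' plastic pots, lightly covered with screened soil and watered from below. Planting was timed so seedlings had 1 or 2 true leaves above the cotyledons at spraying, done in a hood with a fixed nozzle. Control or injury was scored by eye after two weeks.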"}, "Crabgrass (CG) [3]": {"test_system": "Crabgrass (CG)", "experiment": "Pre-emergence herbicide test", "type": "in vivo, Digitaria sanquinalis", "conditions": "Digitaria sanguinalis, pre-emergence, 336 h; 8 lb/acre; two weeks after treatment", "procedure,_shortened": "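Crabgrass (Digitaria sanquinalis) was surface seeded in 3' plastic pots of potting soil, covered with screened soil, and watered by sub-irrigation in greenhouse trays. Pots were seeded one day before spraying in a hood with a moving belt and fixed nozzle. Plants stayed in the greenhouse on sub-irrigation, and pre-emergence control was rated visually two weeks after treatment.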"}, "Corn (CN) [4]": {"test_system": "Corn (CN)", "experiment": "Pre-emergence herbicide test", "type": "in vivo", "conditions": "Zea mays, 336 h, 8 lb/acre, two weeks after treatment", "procedure,_shortened": "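Visual injury/control ratings were made 2 weeks post-spray on corn pots seeded (4 seeds, seed-diameter depth) the day before treatment. Application was a belt-hood spray of 38 gal/acre delivering 8 lbs active per acre, with a 4 lbs/acre rate also formulated. Watering was by sub-irrigation throughout.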"}, "Bean (BN) [5]": {"test_system": "Bean (BN)", "experiment": "Pre-emergence herbicide test", "type": "in vivo, Phaseolus vulgaris var. Black Valentine", "conditions": "Phaseolus vulgaris, 336 h, 8 lb/acre, two weeks after treatment", "procedure,_shortened": "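Visual injury/control ratings were taken two weeks post-spray on sub-irrigated Phaseolus vulgaris var. Black Valentine. Pots were sown a day before treatment. Pre-emergence spray delivered 8 lbs actual compound per acre (or 4 lbs/acre) at 38 gallons per acre.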"}, "Johnson grass (JG) [6]": {"test_system": "Johnson grass (JG)", "experiment": "Post-emergence herbicide test", "type": "in vivo, Sorgum helepense", "conditions": "Sorghum halepense, 336 h, 8 lb/acre, two weeks after treatment", "procedure,_shortened": "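Visual injury or control scores taken 2 weeks after a post-emergence spray of pot-grown plants. Application was 8 lbs/acre (or 4 lbs/acre) in 38 gal/acre. Plants were held in the greenhouse with sub-irrigation only.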"}, "Cotton (CT) [7]": {"test_system": "Cotton (CT)", "experiment": "Post-emergence herbicide test", "type": "in vivo, Gossypium hirsutum var. DPL smooth leaf", "conditions": "Gossypium hirsutum, post-emergence, 336 h; 8 lb/acre; two weeks after treatment", "procedure,_shortened": "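This greenhouse post-emergence test measured how well spray treatments controlled cotton. Seedlings of Gossypium hirsutum var. DPL smooth leaf, with expanded cotyledons and a first true leaf 1' in length, were sprayed with 50 ml formulations in a belt-fed spray hood. They were then returned to the greenhouse and watered only by sub-irrigation. Injury was scored visually as % control after two weeks.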"}, "[8]": {"test_system": "variety of crops and weed species", "experiment": "Pre- and post-emergence herbicide tests, overall assessment of Tables III-VI", "type": "in vivo", "conditions": "data of Tables III-VI", "method": "All crop and weed species were planted individually in 3' plastic pots containing potting soil. Four seeds each of corn, cotton, and snapbeans were seeded to a depth equal to the diameter of the seed. All other species were surface seeded and sprinkled with screened soil in an amount sufficient to cover the seed. Immediately after planting, all pots were watered by sub-irrigation in greenhouse trays. Pots for the pre-emergence phase were seeded one day before treatment.\nCompounds were tested at rates of application equivalent to 8 lbs. of actual compound per acre in a spray volume of 38 gallons per acre. Spray hood constants required to deliver the above volume are as follows:\nTwo weeks after treatment, pre- and post-emergence injury or control was visually rated, and the results were as shown in the following tables. Pre-emergence data are provided in TABLE III and post-emergence data are provided in TABLE IV, for compounds having the formula illustrated in TABLE I. Correspondingly, pre-emergence and post-emergence data, respectively, are set forth in TABLES V AND VI, for compounds having the formula illustrated in TABLE II."}, "Amaranth pigweed (PW) [9]": {"test_system": "Amaranth pigweed (PW)", "experiment": "Post-emergence herbicide test", "type": "in vivo, Amaranthus retroflexus", "conditions": "336 h, 8 lb/acre, two weeks after treatment", "procedure,_shortened": "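Visual injury or control ratings were made two weeks after spraying, with greenhouse watering by sub-irrigation only. Treatment was post-emergence, when pigweed seedlings had 1 or 2 true leaves, at 8 lbs active compound per acre (4 lbs/acre formulations also made) in a 38 gallons-per-acre spray volume.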"}, "Barnyard grass (BG)": {"test_system": "Barnyard grass (BG)", "experiment": "Post-emergence herbicide test", "type": "in vivo", "conditions": "Echinochloa crus-galli, 336 h, 8 lb/acre, two weeks after treatment", "procedure,_shortened": "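Greenhouse pot-grown barnyard grass seedlings sprayed post-emergence at 8 lbs active compound per acre (some at 4 lbs/acre) in 38 gallons per acre, then sub-irrigated. Injury or control rated visually two weeks after treatment.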"}, "Corn (CN) [10]": {"test_system": "Corn (CN)", "experiment": "Post-emergence herbicide test", "type": "in vivo", "conditions": "Zea mays, 336 h, 8 lb/acre, two weeks after treatment", "procedure,_shortened": "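Greenhouse seedlings grown in potting soil and sprayed post-emergence at 8 lbs compound/acre (formulations also made for 4 lbs/acre) in 38 gallons/acre spray volume. Watering by sub-irrigation only. Injury or control rated visually two weeks after treatment.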"}, "Cotton (CT) [11]": {"test_system": "Cotton (CT)", "experiment": "Pre-emergence herbicide test", "type": "in vivo, Gossypium hirsutum var. DPL smooth leaf", "conditions": "Gossypium hirsutum, 336 h, 8 lb/acre, two weeks after treatment", "procedure,_shortened": "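Visual injury/control ratings were taken at two weeks post-spray. Pots seeded a day earlier received compound pre-emergence at 8 lbs/acre, or 4 lbs/acre, in a 38 gallon/acre spray volume, and were then held in the greenhouse, watered only from below.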"}, "Crabgrass (CG) [12]": {"test_system": "Crabgrass (CG)", "experiment": "Post-emergence herbicide test", "type": "in vivo, Digitaria sanquinalis", "conditions": "Digitaria sanguinalis, post-emergence, 336 h; 8 lb/acre; two weeks after treatment", "procedure,_shortened": "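Crabgrass (Digitaria sanquinalis) was surface seeded individually in 3' plastic pots of potting soil, covered with screened soil, and watered by sub-irrigation in greenhouse trays. Planting was staggered so seedlings reached the target stage together. Post-emergence sprays were applied in a hood with a removable belt and fixed nozzle, and control was visually rated two weeks after treatment.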"}, "Johnson grass (JG) [13]": {"test_system": "Johnson grass (JG)", "experiment": "Pre-emergence herbicide test", "type": "in vivo, Sorgum helepense", "conditions": "Sorghum halepense, 336 h, 8 lb/acre, two weeks after treatment", "procedure,_shortened": "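Visual injury or control rating two weeks post-treatment, after pre-emergence spray of 8 or 4 lbs active per acre (38 gal/acre) onto pots sown the previous day. Greenhouse watering by sub-irrigation only.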"}, "Bean (BN) [14]": {"test_system": "Bean (BN)", "experiment": "Post-emergence herbicide test", "type": "in vivo, Phaseolus vulgaris var. Black Valentine", "conditions": "Phaseolus vulgaris, post-emergence, 336 h; 8 lb/acre; two weeks after treatment", "procedure,_shortened": "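Bean seedlings (Phaseolus vulgaris var. Black Valentine) were grown in potting soil in 3' pots until the primary leaves expanded. They were then sprayed under a hood with a removable belt and fixed nozzle, using 50 ml formulations. Afterward they were returned to the greenhouse and watered only by sub-irrigation. Percent control was judged visually two weeks after treatment.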"}, "Amaranth pigweed (PW) [15]": {"test_system": "Amaranth pigweed (PW)", "experiment": "Pre-emergence herbicide test", "type": "in vivo, Amaranthus retroflexus", "conditions": "336 h, 8 lb/acre, two weeks after treatment", "procedure,_shortened": "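Visual injury or control ratings were made at two weeks on pre-emergence pots, sub-irrigated in the greenhouse. Seeds were sown a day before a hood spray delivering 8 lbs/acre (or 4 lbs/acre) of compound in 38 gallons per acre.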"}},
  "data": [
    {"smiles": "CCc1nnc(NC(=O)N(C)C)s1", "note": "[Example 20]", "values": [
      {"measurement": "pest or weed control at 8966.8 g/ha", "setting": "Turnip (TP) [1]", "result": 100, "unit": "%"},
      {"measurement": "pest or weed control at 8966.8 g/ha", "setting": "Turnip (TP) [2]", "result": 90, "unit": "%"},
      {"measurement": "pest or weed control at 8966.8 g/ha", "setting": "Crabgrass (CG) [3]", "result": 90, "unit": "%"},
      {"measurement": "pest or weed control at 8966.8 g/ha", "setting": "Corn (CN) [4]", "result": 30, "unit": "%"},
      {"measurement": "pest or weed control at 8966.8 g/ha", "setting": "Bean (BN) [5]", "result": 10, "unit": "%"},
      {"measurement": "pest or weed control at 8966.8 g/ha", "setting": "Johnson grass (JG) [6]", "result": 20, "unit": "%"},
      {"measurement": "pest or weed control at 8966.8 g/ha", "setting": "Cotton (CT) [7]", "result": 80, "unit": "%"},
      {"measurement": "herbicidal effectiveness / selectivity, in words", "setting": "[8]", "result": "more selective when applied to a certain crop or weed species"},
      {"measurement": "pest or weed control at 8966.8 g/ha", "setting": "Amaranth pigweed (PW) [9]", "result": 100, "unit": "%"},
      {"measurement": "pest or weed control at 8966.8 g/ha", "setting": "Barnyard grass (BG)", "result": 20, "unit": "%"},
      {"measurement": "pest or weed control at 8966.8 g/ha", "setting": "Corn (CN) [10]", "result": 30, "unit": "%"},
      {"measurement": "pest or weed control at 8966.8 g/ha", "setting": "Cotton (CT) [11]", "result": 30, "unit": "%"},
      {"measurement": "pest or weed control at 8966.8 g/ha", "setting": "Crabgrass (CG) [12]", "result": 20, "unit": "%"},
      {"measurement": "pest or weed control at 8966.8 g/ha", "setting": "Johnson grass (JG) [13]", "result": 70, "unit": "%"},
      {"measurement": "pest or weed control at 8966.8 g/ha", "setting": "Bean (BN) [14]", "result": 50, "unit": "%"},
      {"measurement": "pest or weed control at 8966.8 g/ha", "setting": "Amaranth pigweed (PW) [15]", "result": 90, "unit": "%"}
    ]}
  ]
}
